Source: PubChem BioAssay AID651650 (Sanford-Burnham Center for Chemical Genomics, 2012)
pIC50: −log10 of the molar value. The source made the active and inactive calls.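 How the source made its calls: active means mean IC50 below 20 µM in each of the two panels, so potent in both; inactive means the rest.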

Target: Neuropilin-1 (Homo sapiens) (UniProt O14786)
Test: blockers of CendR peptide binding to NRP-1 – biochemical, FP and AlphaScreen panel, dose response (AID 651650)
Settings: NRP-1 b1b2 / RPARPAR peptide binding, FP or AlphaScreen
[1] = AlphaScreen, run 1, individual panel run IC50
[2] = FP, run 1, individual panel run IC50
[3] = FP, run 2, individual panel run IC50

Sequence of Neuropilin-1 (Homo sapiens) (O14786 whole entry, looked up): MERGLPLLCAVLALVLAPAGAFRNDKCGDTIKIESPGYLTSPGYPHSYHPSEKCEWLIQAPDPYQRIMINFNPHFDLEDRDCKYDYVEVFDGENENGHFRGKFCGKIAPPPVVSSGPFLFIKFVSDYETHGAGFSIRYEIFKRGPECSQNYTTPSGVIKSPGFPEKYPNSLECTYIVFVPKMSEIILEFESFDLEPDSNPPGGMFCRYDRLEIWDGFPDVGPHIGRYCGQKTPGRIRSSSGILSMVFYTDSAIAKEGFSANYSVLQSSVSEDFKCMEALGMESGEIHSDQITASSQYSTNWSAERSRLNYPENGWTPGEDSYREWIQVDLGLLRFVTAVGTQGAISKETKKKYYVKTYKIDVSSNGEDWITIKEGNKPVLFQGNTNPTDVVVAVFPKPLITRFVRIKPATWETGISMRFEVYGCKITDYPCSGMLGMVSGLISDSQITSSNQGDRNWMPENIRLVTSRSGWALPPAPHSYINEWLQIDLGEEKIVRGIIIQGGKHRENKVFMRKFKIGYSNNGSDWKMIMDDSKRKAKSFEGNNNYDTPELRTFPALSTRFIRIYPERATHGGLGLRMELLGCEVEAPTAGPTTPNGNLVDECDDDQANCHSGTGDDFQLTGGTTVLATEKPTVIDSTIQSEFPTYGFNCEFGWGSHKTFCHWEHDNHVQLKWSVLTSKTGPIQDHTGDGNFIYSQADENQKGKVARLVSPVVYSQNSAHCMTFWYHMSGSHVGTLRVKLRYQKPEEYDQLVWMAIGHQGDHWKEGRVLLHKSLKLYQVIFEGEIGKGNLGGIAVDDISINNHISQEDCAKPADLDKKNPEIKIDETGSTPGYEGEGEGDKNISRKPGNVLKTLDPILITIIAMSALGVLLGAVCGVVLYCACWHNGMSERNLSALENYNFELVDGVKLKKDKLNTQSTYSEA

Structure (SMILES) | IC50 (AlphaScreen, mean of runs) | pIC50 [1] | IC50 (FP, mean of runs) | pIC50 [2] | pIC50 [3] | pIC50 (AlphaScreen, mean of runs)
CC(C)(C)OC(=O)N1CCN(C(=O)c2[nH]cnc2C(=O)NCc2ccccc2)CC1 | > 100 µM (inactive) | < 4.00 | > 95 µM (inactive) | < 4.02 | < 4.02 | 
CC(=O)c1ccc(OCC(=O)Nc2nnc(C3CC3)s2)cc1 | > 100 µM (inactive) | < 4.00 | > 95 µM (inactive) | < 4.02 | < 4.02 | 
CCC1=C(OC(=O)N(CC)CC)N2C(=O)OC(=NCCOC)[C@]2(Cc2ccccc2)[C@H]2C1=CC[C@H]1C(=O)N(CC(=O)OC)C(=O)[C@H]12 | > 100 µM (inactive) | < 4.00 | > 95 µM (inactive) | < 4.02 | < 4.02 | 
CCCn1c(C)cc(C(=O)CSc2nc3nc(C)cc(C)n3n2)c1C | > 100 µM (inactive) | < 4.00 | > 95 µM (inactive) | < 4.02 | < 4.02 | 
O=S(=O)(c1ccccc1)c1nc(-c2ccc(F)cc2)oc1N1CCOCC1 | > 100 µM (inactive) | < 4.00 | > 95 µM (inactive) | < 4.02 | < 4.02 | 
CCCCOC(=O)c1ccc(NS(=O)(=O)c2cc(-c3nnnn3CC)ccc2OC)cc1 | > 100 µM (inactive) | < 4.00 | > 95 µM (inactive) | < 4.02 | < 4.02 | 
COc1ccc(/C=N/NC(=O)c2ccccc2Cl)cc1CSc1nc2ccccc2s1 | > 100 µM (inactive) | < 4.00 | > 95 µM (inactive) | < 4.02 | < 4.02 | 
Cc1c(NP(=O)(C(C)(C)C)C(C)(C)C)c(=O)n(-c2ccccc2)n1C | > 100 µM (inactive) | < 4.00 | > 95 µM (inactive) | < 4.02 | < 4.02 | 
Cc1cc(N/C(=N/S(=O)(=O)c2cc(F)ccc2F)c2ccccc2)n(-c2ccccc2)n1 | > 100 µM (inactive) | < 4.00 | > 95 µM (inactive) | < 4.02 | < 4.02 | 
COC(=O)[C@@]1(Cc2ccc(OC)cc2)[C@H]2c3cc(C(=O)N4CCCC4)n(CCN4CCOCC4)c3C[C@H]2CN1C(=O)c1ccccc1 | > 100 µM (inactive) | < 4.00 | > 95 µM (inactive) | < 4.02 | < 4.02 | 
O=C(c1ccco1)N1CCN(C(=O)c2ccccc2OC(=O)C23CC4CC(CC(C4)C2)C3)CC1 |  | 6.02 | > 95 µM (inactive) | < 4.02 | < 4.02 | 6.02
CSc1ncccc1C(=O)OCC(=O)NC1CCCCC1 | > 100 µM (inactive) | < 4.00 | > 95 µM (inactive) | < 4.02 | < 4.02 | 
Cc1ccc(Cn2c(C(C)Nc3nc(-c4ccc(Cl)c([N+](=O)[O-])c4)cs3)nc3cc(C(F)(F)F)ccc32)cc1 (stereo not given) | > 100 µM (inactive) | < 4.00 | > 95 µM (inactive) | < 4.02 | < 4.02 | 
C[C@@H](C(=O)Nc1cccnc1)n1c(=O)[nH]c2ccccc2c1=O | > 100 µM (inactive) | < 4.00 | > 95 µM (inactive) | < 4.02 | < 4.02 | 
COc1c2ccc(C(=O)NCc3cc(C(F)(F)F)cc(C(F)(F)F)c3)cc2nn1C | > 100 µM (inactive) | < 4.00 | > 95 µM (inactive) | < 4.02 | < 4.02 | 
COc1ccc(Cn2c(C3CC3)nc3ccc(NC(=O)c4cccnc4)cc3c2=O)cc1 | inactive | 4.50 | > 95 µM (inactive) | < 4.02 | < 4.02 | 
O=c1[nH]c(Nc2ccccn2)cc2ccccc12 |  | 4.71 | > 95 µM (inactive) | < 4.02 | < 4.02 | 4.71
CCOc1ccc(N2C(=O)CC(N3CCN(c4ccc(Cl)cc4)CC3)C2=O)cc1 (stereo not given) | inactive | 4.65 | > 95 µM (inactive) | < 4.02 | < 4.02 | 
CC1(C(=O)NCc2cccc3ccccc23)CCN1Cc1cccc2c1OCO2 (stereo not given) | > 100 µM (inactive) | < 4.00 | > 95 µM (inactive) | < 4.02 | < 4.02 | 
CCn1cc(C(=O)N2CCN(C(=O)c3ccco3)CC2)c2cc(OC)c(OC)cc2c1=O | inactive | 4.60 | > 95 µM (inactive) | < 4.02 | < 4.02 | 
COc1cc(C(=O)Nc2cc3c(cc2N2CCCCC2)n(C)c(=O)n3C)cc(OC)c1OC | inactive | 4.07 | > 95 µM (inactive) | < 4.02 | < 4.02 | 
Cc1cccc(C)c1Nc1nnc(SCC(=O)Nc2cc(S(=O)(=O)N3CCCCC3)ccc2Cl)s1 | > 100 µM (inactive) | < 4.00 | > 95 µM (inactive) | < 4.02 | < 4.02 | 
